These results are taken from article PMC3914206.

The structures appear in SMILES notation.

In experiment [1] the target is T1, panel of 442 kinases (Homo sapiens, UniProt Q9NY57).
T1 construct: purchased KINOMEscan
Type of experiment: binding. To be noted: kinase YANK2; compound concentration 10 µM. From the text:
(§1) We assessed the selectivity of members of this scaffold using the KINOMEscan methodology across a near comprehensive panel of 442 kinases [[18,27]].

Experiment [2] has as its target T2, panel of 442 kinases (Homo sapiens, UniProt P54760).
T2 construct: purchased KINOMEscan
T2 sequence (P54760 16-987): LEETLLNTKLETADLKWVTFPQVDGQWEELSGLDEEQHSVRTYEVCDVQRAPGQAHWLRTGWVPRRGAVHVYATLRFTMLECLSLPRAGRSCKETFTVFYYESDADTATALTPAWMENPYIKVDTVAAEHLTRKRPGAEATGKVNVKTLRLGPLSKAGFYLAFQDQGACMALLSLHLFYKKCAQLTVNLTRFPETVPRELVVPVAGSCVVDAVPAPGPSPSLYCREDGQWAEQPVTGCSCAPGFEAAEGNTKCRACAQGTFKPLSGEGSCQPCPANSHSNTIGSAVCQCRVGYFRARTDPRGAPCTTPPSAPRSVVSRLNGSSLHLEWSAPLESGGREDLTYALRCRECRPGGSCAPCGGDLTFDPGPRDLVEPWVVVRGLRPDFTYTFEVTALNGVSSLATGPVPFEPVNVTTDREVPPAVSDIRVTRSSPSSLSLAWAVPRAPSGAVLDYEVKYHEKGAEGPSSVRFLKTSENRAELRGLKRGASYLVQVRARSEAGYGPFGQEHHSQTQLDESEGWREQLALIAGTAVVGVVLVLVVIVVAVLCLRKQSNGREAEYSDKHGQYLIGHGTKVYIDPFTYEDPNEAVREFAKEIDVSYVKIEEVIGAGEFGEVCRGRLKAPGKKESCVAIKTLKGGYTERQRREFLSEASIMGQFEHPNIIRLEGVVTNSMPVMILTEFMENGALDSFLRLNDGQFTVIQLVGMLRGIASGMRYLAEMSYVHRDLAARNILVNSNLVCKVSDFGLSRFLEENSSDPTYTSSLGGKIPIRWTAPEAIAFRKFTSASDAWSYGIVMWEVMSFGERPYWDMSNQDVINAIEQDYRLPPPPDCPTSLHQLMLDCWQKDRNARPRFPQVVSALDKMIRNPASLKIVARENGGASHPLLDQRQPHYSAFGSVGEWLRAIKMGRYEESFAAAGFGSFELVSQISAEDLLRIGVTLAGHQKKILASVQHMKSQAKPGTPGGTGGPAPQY
The format is binding. To be noted: Compound Concentration 10 µM.
Description: as §1

T1 sequence (Q9NY57 whole entry): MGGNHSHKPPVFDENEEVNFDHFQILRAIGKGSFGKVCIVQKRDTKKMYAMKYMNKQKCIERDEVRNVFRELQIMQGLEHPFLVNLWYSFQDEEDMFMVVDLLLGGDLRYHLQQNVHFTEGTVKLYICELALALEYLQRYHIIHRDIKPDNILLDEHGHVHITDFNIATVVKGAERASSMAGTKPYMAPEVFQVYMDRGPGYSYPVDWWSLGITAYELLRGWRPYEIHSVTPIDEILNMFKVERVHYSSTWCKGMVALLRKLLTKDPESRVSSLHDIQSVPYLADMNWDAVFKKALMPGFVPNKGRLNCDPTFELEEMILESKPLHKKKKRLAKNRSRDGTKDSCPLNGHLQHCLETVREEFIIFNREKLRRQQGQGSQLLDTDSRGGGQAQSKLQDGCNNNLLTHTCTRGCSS

With `CCOc1cc(C(=O)N2CCC(N3CCN(C)CC3)CC2)ccc1Nc1ncc2c(n1)N(C1CCCC1)c1ccccc1C(=O)N2C` [Compound 26], the “% Ctrl, YANK2” value on panel of 442 kinases [1] came out at 100 % Ctrl. Besides, the “KINOMEscan: EPHB4” value at panel of 442 kinases [2] turned out to be 100. In the case of `COc1cc(C(=O)N2CCC(N3CCN(C)CC3)CC2)ccc1Nc1ncc2c(n1)N1CCc3cccc(c31)C(=O)N2C` [Compound 24], the “% Ctrl, YANK2” value at panel of 442 kinases [1] is 100 % Ctrl. Take `COc1cc(C(=O)N2CCC(N3CCN(C)CC3)CC2)ccc1Nc1ncc2c(n1)N(C)c1ccccc1C(=O)N2C` [15 (LRRK2-IN-1)]: the “% Ctrl, YANK2” value on panel of 442 kinases [1] worked out at 100 % Ctrl. Further, the “KINOMEscan: EPHB4” value on panel of 442 kinases [2] was found to be 100. Consider `COc1cc(C(=O)N2CCC(N3CCN(C)CC3)CC2)ccc1Nc1ncc2c(n1)N(C1CCCC1)c1ccccc1C(=O)N2C` [Compound 25, 11-cyclopentyl-2-((2-methoxy-4-(4-(4-methylpiperazin-1-yl)piperidine-1-carbonyl)phenyl)amino)-5-methyl-5H-benzo[e]pyrimido[5,4-b][1,4]diazepin-6(11H)-one], for which the “% Ctrl, YANK2” value on panel of 442 kinases [1] is reported as 100 % Ctrl. For the same molecule, the “KINOMEscan: EPHB4” value at panel of 442 kinases [2] is on record as 100.
